Measurements reported in patent US20240269139A1, “COMPOUNDS FOR TARGETED PROTEIN DEGRADATION OF KINASES” (DANA-FARBER CANCER INSTITUTE, INC., priority 2020, published 2024).
Like-named read-outs stand apart in the source and are kept apart here.

What was measured:
Assay type in all cases: cell-based
[1] = target: T1, protein kinases (human kinome) (Homo sapiens, UniProt Q96L34); conditions: for logFC MARK4: Accession Q96L34-1
T1 sequence (Q96L34 1-752): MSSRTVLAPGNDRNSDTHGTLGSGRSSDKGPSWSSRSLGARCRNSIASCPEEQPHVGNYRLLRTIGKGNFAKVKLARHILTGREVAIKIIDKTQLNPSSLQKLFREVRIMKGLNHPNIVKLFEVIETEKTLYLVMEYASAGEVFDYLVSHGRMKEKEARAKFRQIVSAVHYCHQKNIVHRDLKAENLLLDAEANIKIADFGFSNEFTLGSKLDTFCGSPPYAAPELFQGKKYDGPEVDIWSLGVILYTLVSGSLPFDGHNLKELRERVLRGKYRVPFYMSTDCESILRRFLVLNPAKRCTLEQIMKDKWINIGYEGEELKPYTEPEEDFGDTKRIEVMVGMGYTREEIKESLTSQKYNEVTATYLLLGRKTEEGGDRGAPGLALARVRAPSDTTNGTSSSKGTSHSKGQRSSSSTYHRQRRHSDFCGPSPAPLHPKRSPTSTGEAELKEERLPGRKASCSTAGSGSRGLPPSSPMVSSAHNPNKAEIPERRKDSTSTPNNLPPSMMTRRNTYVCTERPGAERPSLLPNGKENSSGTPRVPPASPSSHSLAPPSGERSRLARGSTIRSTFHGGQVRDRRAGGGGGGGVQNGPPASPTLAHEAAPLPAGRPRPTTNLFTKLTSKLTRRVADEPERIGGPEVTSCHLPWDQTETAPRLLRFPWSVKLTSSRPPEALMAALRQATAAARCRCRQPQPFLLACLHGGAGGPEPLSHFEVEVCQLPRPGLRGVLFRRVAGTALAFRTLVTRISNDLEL

[2] = target: protein kinases (human kinome) (Homo sapiens, UniProt Q13233)
[3] = target: protein kinases (human kinome) (Homo sapiens, UniProt Q00535); conditions: for logFC of CDK5: Accession Q00535
[4] = experiment wp016, direction of change down
[5] = experiment wp137, direction of change down

Chain of protein kinases (human kinome) (Homo sapiens, UniProt Q00535) (Q00535 whole entry): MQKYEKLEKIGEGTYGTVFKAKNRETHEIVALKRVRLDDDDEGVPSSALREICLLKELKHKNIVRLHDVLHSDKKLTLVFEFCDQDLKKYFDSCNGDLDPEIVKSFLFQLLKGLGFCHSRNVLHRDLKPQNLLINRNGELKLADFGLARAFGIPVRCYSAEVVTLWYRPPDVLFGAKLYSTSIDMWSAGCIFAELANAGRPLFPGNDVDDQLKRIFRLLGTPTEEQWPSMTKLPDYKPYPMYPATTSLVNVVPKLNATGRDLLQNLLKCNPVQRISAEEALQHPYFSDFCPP
Chain of protein kinases (human kinome) (Homo sapiens, UniProt Q13233) (Q13233 whole entry): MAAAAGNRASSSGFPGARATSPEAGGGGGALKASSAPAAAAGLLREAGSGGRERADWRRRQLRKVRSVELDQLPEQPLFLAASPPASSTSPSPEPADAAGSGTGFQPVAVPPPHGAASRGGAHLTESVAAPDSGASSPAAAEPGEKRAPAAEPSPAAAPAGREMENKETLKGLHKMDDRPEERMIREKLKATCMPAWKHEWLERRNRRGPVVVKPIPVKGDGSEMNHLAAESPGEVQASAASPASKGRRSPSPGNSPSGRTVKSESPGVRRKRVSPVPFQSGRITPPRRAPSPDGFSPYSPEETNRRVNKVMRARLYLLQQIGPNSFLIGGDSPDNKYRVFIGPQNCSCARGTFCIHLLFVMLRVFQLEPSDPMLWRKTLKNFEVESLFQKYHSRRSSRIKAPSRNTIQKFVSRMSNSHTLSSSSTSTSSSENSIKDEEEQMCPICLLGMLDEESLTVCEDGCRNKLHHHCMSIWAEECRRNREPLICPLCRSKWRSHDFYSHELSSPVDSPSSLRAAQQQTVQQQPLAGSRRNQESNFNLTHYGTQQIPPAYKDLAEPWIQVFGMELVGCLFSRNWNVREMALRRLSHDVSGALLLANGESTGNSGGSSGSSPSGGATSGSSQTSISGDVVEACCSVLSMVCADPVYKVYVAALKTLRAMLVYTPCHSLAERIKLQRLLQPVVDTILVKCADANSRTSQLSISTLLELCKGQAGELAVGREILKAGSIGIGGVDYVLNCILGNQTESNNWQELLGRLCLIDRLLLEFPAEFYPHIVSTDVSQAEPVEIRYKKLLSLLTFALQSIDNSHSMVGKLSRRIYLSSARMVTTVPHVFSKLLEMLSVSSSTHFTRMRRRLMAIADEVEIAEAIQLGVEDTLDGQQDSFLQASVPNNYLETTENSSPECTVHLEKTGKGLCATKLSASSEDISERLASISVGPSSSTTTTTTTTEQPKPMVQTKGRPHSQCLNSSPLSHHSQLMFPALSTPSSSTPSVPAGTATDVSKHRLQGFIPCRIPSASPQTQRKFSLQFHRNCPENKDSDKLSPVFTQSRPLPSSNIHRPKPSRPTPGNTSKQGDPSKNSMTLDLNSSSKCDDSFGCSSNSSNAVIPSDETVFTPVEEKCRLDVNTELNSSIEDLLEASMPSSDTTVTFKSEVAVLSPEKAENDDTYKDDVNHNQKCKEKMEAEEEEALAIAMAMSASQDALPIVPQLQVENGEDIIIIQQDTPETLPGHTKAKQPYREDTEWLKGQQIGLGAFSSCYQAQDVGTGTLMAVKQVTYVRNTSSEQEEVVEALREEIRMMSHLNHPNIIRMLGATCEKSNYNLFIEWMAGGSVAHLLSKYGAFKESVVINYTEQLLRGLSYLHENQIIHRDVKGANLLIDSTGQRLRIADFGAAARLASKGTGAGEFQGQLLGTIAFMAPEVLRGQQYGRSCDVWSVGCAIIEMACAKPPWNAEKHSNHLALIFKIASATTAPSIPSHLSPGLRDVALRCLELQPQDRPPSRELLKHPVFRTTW

O=C(COc1cccc2c1C(=O)N(C1CCC(=O)NC1=O)C2=O)NCCCCCCCN1CCc2cc(Nc3ncc(C4CC4)c(NCCCNC(=O)C4CCC4)n3)ccc2C1 (centres unmarked) [BSJ.04.178]
logFC MARK4 ([1]; experiment wp134): −0.993
logFC MARK4 (Q96L34-1) ([1]; experiment wp134): −0.993

CC(C)S(=O)(=O)c1ccccc1Nc1nc(Nc2ccc(N3CCN(CCOCCNC(=O)CNc4cccc5c4C(=O)N(C4CCC(=O)NC4=O)C5=O)CC3)cc2)ncc1Cl (centres unmarked) [SK.3.91]
logFC MARK4 ([1]; experiment wp103): −1.326
logFC MARK4 ([1]; experiment wp107): −1.292
logFC MARK4 ([1]; experiment wp114): −1.3
logFC MARK4 ([1]; experiment wp133, 2 hr): −0.6282
logFC MARK4 ([1]; experiment wp133, 4 hr): −1.537
logFC MARK4 ([1]; experiment wp160, 4 hr): −1.529
logFC MARK4 (Q96L34-1) ([1]; experiment wp103): −1.326
logFC MARK4 (Q96L34-1) ([1]; experiment wp107): −1.292
logFC MARK4 (Q96L34-1) ([1]; experiment wp114): −1.3
logFC MARK4 (Q96L34-1) ([1]; experiment wp133, 2 hr): −0.6282
logFC MARK4 (Q96L34-1) ([1]; experiment wp133, 4 hr): −1.537
logFC MARK4 (Q96L34-1) ([1]; experiment wp160, 4 hr): −1.529
logFC MAP3K1 ([2]; Accession Q13233, experiment wp105, direction down): −0.3258
logFC MAP3K1 ([2]; MAP3K1 (Q13233), experiment wp105): −0.3258
logFC of CDK5 ([3]; experiment wp016): −1.126
logFC of CDK5 ([3]; experiment wp016, 1 uM): −1.429
logFC of CDK5 ([3]; experiment wp103): −1.043
logFC of CDK5 ([3]; experiment wp105): −0.931
logFC CDK5 (Q00535) ([3]; Experiment wp105, direction of change down): −0.931
logFC CDK5 (Q00535) ([3]; Experiment wp107): −1.014
logFC CDK5 (Q00535) ([3]; Experiment wp114): −0.468
logFC CDK5 (Q00535) ([3]; Experiment wp114, direction of change down): −0.468
logFC CDK5 (Q00535) ([3]; Experiment wp160, 2 hr): −0.6265
logFC CDK5 (Q00535) ([3]; Experiment wp172): −1.304
logFC CDK5 (Q00535) ([3]; experiment wp016, 1 uM, direction of change down): −1.429
logFC CDK5 (Q00535) [3, 4]: −1.126
logFC CDK5 (Q00535) ([3]; experiment wp103, direction of change down): −1.043
logFC CDK5 (Q00535) ([3]; experiment wp107, direction of change down): −1.014
logFC CDK5 (Q00535) ([3]; experiment wp133, 2 hr): −0.6608
logFC CDK5 (Q00535) ([3]; experiment wp133, 2 hr, direction of change down): −0.6608
logFC CDK5 (Q00535) ([3]; experiment wp133, 4 hr): −1.242
logFC CDK5 (Q00535) ([3]; experiment wp133, 4 hr, direction of change down): −1.242
logFC CDK5 (Q00535) ([3]; experiment wp160, 1 hr): −0.3257
logFC CDK5 (Q00535) ([3]; experiment wp160, 1 hr, direction of change down): −0.3257
logFC CDK5 (Q00535) ([3]; experiment wp160, 2 hr, direction of change down): −0.6265
logFC CDK5 (Q00535) ([3]; experiment wp160, 4 hr): −1.197
logFC CDK5 (Q00535) ([3]; experiment wp160, 4 hr, direction of change down): −1.197
logFC CDK5 (Q00535) ([3]; experiment wp172, direction of change down): −1.304

Cc1cc(Nc2ncc(Br)c(Nc3cccc(F)c3C(N)=O)n2)ccc1S(=O)(=O)NCCOCCOCCOCCOCCNc1cccc2c1C(=O)N(C1CCC(=O)NC1=O)C2=O (centres unmarked) [TMX.02.174]
logFC CDK5 (Q00535) ([3]; experiment wp146): −3.161
logFC CDK5 (Q00535) ([3]; experiment wp146, direction of change down): −3.161

Cc1ccc(NC(=O)c2cccc(C(F)(F)F)c2)cc1N1Cc2cnc(Nc3ccc(N4CCN(Cc5cn(CCCCCOc6cccc7c6C(=O)N(C6CCC(=O)NC6=O)C7=O)nn5)CC4)nc3)nc2N(C)C1=O (centres unmarked) [DB0646, N-(3-(7-((6-(4-((1-(5-((2-(2,6-Dioxopiperidin-3-yl)-1,3-dioxoisoindolin-4-yl)oxy)pentyl)-1H-1,2,3-triazol-4-yl)methyl)piperazin-1-v)pyridin-3-yl)amino)-1-methyl-2-oxo-1,4-dihydropyrimido[4,5-d]pyrimidin-3(2H)-yl)-4-methylphenyl)-3-(trifluoromethyl)benzamide]
logFC MAP3K1 ([2]; Accession Q13233, experiment wp107, direction down): −0.3767
logFC MAP3K1 ([2]; Accession Q13233, experiment wp152, direction down): −0.6139
logFC MAP3K1 ([2]; Accession Q13233, experiment wp160, 8 hr, direction down): −0.7241
logFC MAP3K1 ([2]; MAP3K1 (Q13233), experiment wp107): −0.3767
logFC MAP3K1 ([2]; MAP3K1 (Q13233), experiment wp152): −0.6139
logFC MAP3K1 ([2]; MAP3K1 (Q13233), experiment wp160, 8 hr): −0.7241

Cc1cnc(Nc2ccc(N3CCN(CCCCCCC(=O)N[C@H](C(=O)N4C[C@H](O)C[C@H]4C(=O)N[C@@H](C)c4ccc(-c5scnc5C)cc4)C(C)(C)C)CC3)cc2)nc1Nc1cccc(S(=O)(=O)NC(C)(C)C)c1 [JWG.123]
logFC MARK4 ([1]; experiment wp195): −1.532
logFC MARK4 (Q96L34-1) ([1]; Experiment wp195): −1.532

CCc1cnn2c(N(Cc3ccc(N)nc3)C(=O)CCOCCOCCOCCNC(=O)CNc3cccc4c3C(=O)N(C3CCC(=O)NC3=O)C4=O)cc(N3CCCC[C@H]3CCO)nc12 (some centres unmarked) [MFH.5.115.2]
logFC MAP3K1 ([2]; Accession Q13233, experiment wp076, direction down): −0.3528
logFC MAP3K1 ([2]; MAP3K1 (Q13233), experiment wp076): −0.3528

CC(C)S(=O)(=O)c1ccccc1Nc1nc(Nc2ccc(N3CCN(CCOCCOCCNC(=O)CNc4cccc5c4C(=O)N(C4CCC(=O)NC4=O)C5=O)CC3)cc2)ncc1Cl (centres unmarked) [TL12.186]
logFC MARK4 ([1]; experiment wp137): −1.298
logFC MARK4 (Q96L34-1) ([1]; experiment wp131): −1.829
logFC MARK4 (Q96L34-1) ([1]; experiment wp137): −1.298
logFC of CDK5 ([3]; experiment wp016): −0.9261
logFC CDK5 (Q00535) [3, 4]: −0.9261
logFC CDK5 (Q00535) ([3]; experiment wp131): −1.3
logFC CDK5 (Q00535) ([3]; experiment wp131, direction of change down): −1.3
logFC CDK5 (Q00535) ([3]; experiment wp137): −1.234
logFC CDK5 (Q00535) [3, 5]: −1.234

CC(C)S(=O)(=O)c1ccccc1Nc1nc(Nc2ccc(N3CCN(CCOCCOCCC(=O)NCCNc4cccc5c4CN(C4CCC(=O)NC4=O)C5=O)CC3)cc2)ncc1Cl (centres unmarked) [TL13.97]
logFC MARK4 ([1]; experiment wp137): −1.74
logFC MARK4 (Q96L34-1) ([1]; experiment wp137): −1.74
logFC CDK5 (Q00535) ([3]; experiment wp137): −1.114
logFC CDK5 (Q00535) [3, 5]: −1.114
